Data on 2 compounds can be found in patent US10278965B2, “Method of detecting cancer stem cell, method of screening cancer stem cell, and method of inhibiting cancer stem cell” (CANON KABUSHIKI KAISHA, priority 2012, dated 2019).

Data set [1] relates to K562-KOr human chronic myelocytic leukemia cells, ALDH (−) fraction, transplanted to zebra young fish. Put plainly: Inhibitory action in cancer cells transplanted animal, ALDH (−) fraction. In kind it is in vivo. As to conditions: 0.5 μm in breeding water added 24 hours after transplantation, fluorescent intensity. An excerpt: (§1) From cell strain K562-KOr, which is a strain of human chronic myelocytic leukemia cells having fluorescent protein Kusabira-Orange constantly expressed, a fraction (ALDH (+)) containing 80% or more of cancer stem cells was extracted by use of a cancer stem cell marker, ALDEFLUOR reagent (manufactured by VERITAS Corporation) and FACSAria flow cytometry (manufactured by Nippon Becton, Dickinson and Company). The ALDH (+) fraction and a ALDH (−) fraction of general cancer cells were transplanted separately to zebra young fish (MieKomachi lineage, 2 days after fertilization) and the fish were raised in a 32° C. environment. Furthermore, 24 hours after transplantation, Compound (16) was added to breeding water so as to obtain a final concentration of […] and fish were raised for two days in a 32° C. environment.
(§2) Cells transplanted to the zebra young fish were observed under MZ16F fluorescent stereoscopic microscope (manufactured by Leica Microsystems) and a fluorescent image of the cells after 24 hours was photographed and then fluorescent intensity was quantified.
As a reference, the fluorescent intensity of cells, which were cultured in the same operation method as above in a medium containing a 0.1% DMSO solution in place of Compound (16), was used. […]

Data set [2] can be described thus: Measurement of fluorescent property of compound. It counts as physicochemical. The note with it: 5 μM DMSO solution. Here is the method:
The excitation wavelength and fluorescence wavelength of the compound were measured by a FL4500 spectrofluorometric measuring machine manufactured by Hitachi High-Technologies Corporation.

The test system of data set [3] is K562-KOr human chronic myelocytic leukemia cells, ALDH (+) fraction, transplanted to zebra young fish. Kind of data set: Inhibitory action in cancer stem cells transplanted animal, ALDH (+) fraction. It counts as in vivo. As to conditions: for Growth suppression rate (ALDH(+) versus ALDH(−)): zebra young fish transplanted with K562-KOr fractions; for ALDH(+) inhibition rate 100×(1−F1/F0): zebra young fish, 0.5 μm in breeding water added 24 hours after transplantation, fluorescent intensity.
Excerpt: as §1, §2
As a reference, the fluorescent intensity of cells, which were cultured in the same operation method as above in a medium containing a 0.1% DMSO solution in place of Compound (16), was used.
The numerical value of fluorescent intensity was obtained from a fluorescent image taken in the same manner as in Experimental Example 74 except that Compound (16) of Experimental Example 74 was changed to Imatinib.
. The inhibition rate herein was obtained according to the expression: 100×(1−F1/F0), where the fluorescent intensity of cells when a test substance was added is represented by F1, and the fluorescent intensity of cells when a reference substance (DMSO) was added is represented by F0.

Data set [4] has as its system Human pancreas cancer cells, KLM-1. Put plainly: Cancer cell inhibitory (growth suppressive) action against pancreatic cancer cells, CellTiter-Glo viable cell count. The note with it: KLM-1, 10 μg/mL, 24 hours. On the technique in general: In ATP-based viability assays light output follows the ATP content of the culture.
Data set [5] relates to K562 ALDH (+) cells. Kind of data set: Cancer stem-cell selective staining, ALDH (+) cells. In kind it is cell-based, Human. As to conditions: cells of Experimental Examples 39, 42 and 45 (1 μg/ml, cultured for 24 hours), fluorescent microscope. As to the method: (§3) The cells cultured for 24 hours in each of Experimental Examples 39, 42 and 45 were subjected to nuclear staining with Hoechest33342 (manufactured by Dojindo Laboratories) and a fluorescent image observed under AXIOVERT200M inverted fluorescent microscope (manufactured by Carl Zeiss) was photographed.

Data set [6] relates to K562 ALDH (−) cells. Put plainly: Cancer stem-cell selective staining, ALDH (−) cells. In kind it is cell-based, Human. The note with it: cells of Experimental Examples 39, 42 and 45 (1 μg/ml, cultured for 24 hours), fluorescent microscope. Here is the method: as §3
Data set [7] concerns Human chronic myelocytic leukemia cells, K562, ALDH (+) fraction (cancer stem cells). Kind of data set: Cancer stem-cell selective inhibitory action against chronic myelocytic leukemia cells, ALDH (+) fraction. It counts as cell-based. As to conditions: 24 hours.
For data set [8], the system named is Prostatic cancer cells, PC-3. Kind of data set: Cancer cell inhibitory (growth suppressive) action against prostatic cancer cells, CellTiter-Glo viable cell count. It counts as cell-based. As to conditions: PC-3, 10 μg/mL, 24 hours.
Data set [9] relates to KLM1-KOr cells, ALDH (+) fraction, transplanted to zebra young fish. Put plainly: Cancer metastasis suppressive effect in cancer cell metastatic foci (region within 300 to 450 μm from a transplanted tumor). In kind it is in vivo. The note with it: 72 hours later, region within 300 to 450 μm from transplanted tumor. Here is the method: From cell strain […], in which KLM1 cells have fluorescent protein Kusabira-Orange constantly expressed, a fraction (ALDH (+)) containing 80% or more of cancer stem cells was extracted with ALDEFLUOR reagent (manufactured by VERITAS Corporation) and FACSAria flow cytometry (manufactured by Nippon Becton, Dickinson and Company). The extracted KLM1-KOr cells were transplanted to zebra young fish (MieKomachi lineage, 2 days after fertilization) and the fish were raised in a 32° C. environment. Furthermore, 24 hours after transplantation, Compound (26) (745 μmol/KgBW) was administered to yolk sac.
72 hours later, cells transplanted to the zebra young fish were observed under MZ16F fluorescent stereoscopic microscope (manufactured by Leica Microsystems) and a fluorescent image of the region within 300 to 450 μm from a transplanted tumor was photographed and then fluorescent intensity was quantified.
As a reference, the fluorescent intensity of cells, which were cultured in the same operation method as above in a medium containing a 0.1% DMSO solution in place of Compound (26), was used.
Fluorescent images were photographed in the same manner as in Experimental Example 26 except that Imatinib and Dasatinib were respectively used in place of the compound (26) in Experimental Example 75.
The inhibition rate herein was obtained according to the expression: 100×(1−F1/F0), where the fluorescent intensity of cells when a test substance was added is represented by F1, and the fluorescent intensity of cells when a reference substance (DMSO) was added is represented by F0.

The test system of data set [10] is Human chronic myelocytic leukemia cells, K562, ALDH (−) fraction (general cancer cells). Put plainly: Cancer stem-cell selective inhibitory action against chronic myelocytic leukemia cells, ALDH (−) fraction. It counts as cell-based. The note with it: K562. As to the method: Human chronic myelocytic leukemia cells, K562, were pre-cultured in RPMI1640 medium containing 10% FBS at 37° C. in a 5% CO2 ambient. Then, a fraction containing 80% or more of cancer stem cells was extracted by use of a cancer stem cell marker, ALDEFLUOR reagent (manufactured by VERITAS Corporation) and FACSAria flow cytometry (manufactured by Nippon Becton, Dickinson and Company). […] The cultured cells were analyzed for viable cell count according to CellTiter-Glo Luminescent Cell Viability Assay (manufactured by Promega KK.). […] Note that hereinafter, an ALDEFLUOR reagent positive fraction (deemed as cancer stem cells) is represented by ALDH (+), whereas an ALDEFLUOR reagent negative fraction (not deemed as cancer stem cells) is represented by ALDH (−), in some cases.
Further, the growth suppressive effect of cancer stem cells was evaluated based on the following criteria. Note that the growth rate in Examples is a value obtained by dividing viable cell count after culture by the number of cells at the initiation time of culture.

SMILES strings stand for the structures.

For `CCCCCN1/C(=C\C=C\c2oc3ccccc3[n+]2CCCCC)Oc2ccccc21` [Compound 16], in data set [1], the “ALDH(−) inhibition rate 100×(1−F1/F0)” value is reported as 82.0. In [2], this compound yielded an Excitation wavelength λex of 474 nm and a Fluorescence wavelength λem of 509 nm. In data set [3], the “Growth suppression rate (ALDH(+) versus ALDH(−))” value was “ALDH(+) is high” and the “ALDH(+) inhibition rate 100×(1−F1/F0)” value came to 95.0. Also, in [4], the “Cancer cell growth rate (%)” value is 2.0% and the “Evaluation (cancer cell growth rate)” value is listed as “A (Cancer cell growth rate is less than 20%)”. For the same compound, the “ratio of ALDH (+) cells stained” value in data set [5] was determined as 99.5%. Moreover, the “ratio of ALDH (−) cells stained” value in [6] is 18.6%. Also, in data set [7] (K562, 0.05 μg/ml), the “ALDH(+) Superiority evaluation” value is “B (The value of the growth rate of ALDH (+)/the growth rate of ALDH (−) is 0.8 or more and less than 0.95)”; the “ALDH(+)/ALDH(−)” value is 0.87. Further, in [7] (K562, 0.5 μg/ml), the “ALDH(+) Superiority evaluation” value was “A (The value of the growth rate of ALDH (+)/the growth rate of ALDH (−) is less than 0.8)” and the “ALDH(+)/ALDH(−)” value is 0.70. Besides, in [7] (K562, 1 μg/ml), the “ALDH(+) Superiority evaluation” value was “A (The value of the growth rate of ALDH (+)/the growth rate of ALDH (−) is less than 0.8)” and the “ALDH(+)/ALDH(−)” value turned out to be 0.47. In data set [8], the “Cancer cell growth rate (%)” value came out at 8.4% and the “Evaluation (cancer cell growth rate)” value was “A (Cancer cell growth rate is less than 20%)”.

In the case of `Cc1ccc(NC(=O)c2ccc(CN3CCN(C)CC3)cc2)cc1Nc1nccc(-c2cccnc2)n1` [Imatinib, reference compound], the “ALDH(−) inhibition rate 100×(1−F1/F0)” value in [1] was 80.0. In [3], the “Growth suppression rate (ALDH(+) versus ALDH(−))” value is “ALDH(−) is high”. For the same compound, the “ALDH(+) inhibition rate 100×(1−F1/F0)” value in data set [3] is 60.0. For the same compound, the “Inhibition rate 100×(1−F1/F0), metastatic foci” value in data set [9] (administered to yolk sac 24 hours after transplantation (Compound (26) 745 μmol/KgBW)) came out at 60. Besides, the “Evaluation (inhibition rate, metastatic foci)” value in data set [9] was “B (Inhibition rate is 50 or more and less than 70)”. Moreover, the “ALDH(+) Superiority evaluation” value in [7] (K562, 0.12 μg/ml) is “C (The value of the growth rate of ALDH (+)/the growth rate of ALDH (−) is 0.95 or more)”; in data set [7] (K562, 0.24 μg/ml) it was “C (The value of the growth rate of ALDH (+)/the growth rate of ALDH (−) is 0.95 or more)”; in data set [7] (K562, 0.35 μg/ml), “C (The value of the growth rate of ALDH (+)/the growth rate of ALDH (−) is 0.95 or more)”; in [7] (K562, 0.47 μg/ml), “C (The value of the growth rate of ALDH (+)/the growth rate of ALDH (−) is 0.95 or more)”; in [7] (K562, 0.59 μg/ml), “C (The value of the growth rate of ALDH (+)/the growth rate of ALDH (−) is 0.95 or more)”. The “ALDH(+)/ALDH(−)” value in data set [7] (K562, 0.12 μg/ml) turned out to be 1.47; in data set [7] (K562, 0.24 μg/ml), 1.48; in data set [7] (K562, 0.35 μg/ml), 1.51; in data set [7] (K562, 0.47 μg/ml), 1.63; in data set [7] (K562, 0.59 μg/ml), 2.80. Further, the “inhibitory effect against general cancer cells” value in data set [10] is “an inhibitory effect against general cancer cells was observed”.
